Test results as given in PMC6149814, “Enhanced Intestinal Permeability of Bufalin by a Novel Bufalin-Peptide-Dendrimer Inclusion through Caco-2 Cell Monolayer” (Molecules : A Journal of Synthetic Chemistry and Natural …, 2017).

Tests used:
[1] = Cytotoxicity in Caco-2 cells by MTT assay; assay type: cell-based; conditions: human
Procedure: The viability of Caco-2 cells were measured after treated for 180 min with Hanks’ balanced salts solution (HBSS) (negative control), paclitaxel (positive control, 25, 50, 75 and 100 μM), BFL (50, 75, 100 and 125 μM) and BPDI (containing BFL 50, 75, 100 and 125 μM), respectively.
The cytotoxicities of free BFL and its formulation, BPDI against Caco-2 cells were tested using the 3-(4,5-dimethylthiazol-2-yl)-2,5-diphenyltetrazolium bromide (MTT) assay. Caco-2 cells at the logarithmic growth were seeded in 96-well plate at the concentration of […] and incubated in an atmosphere of 5% CO2 and 90% relative humidity at 37 °C for three days. After cells attachment, HBSS solution (negative control), paclitaxel (positive control, 25, 50, 75, and 100 μM), BFL (50, 75, 100, and 125 μM), and BPDI (containing BFL 50, 75, 100, and 125 μM) solutions were added into each well, respectively. After cells were treated for three hours, HBSS solution was removed, and cells were rinsed with PBS and incubated with 20 μL of MTT solution (0.5 mg/mL) for 4 h at 37°C and 5% CO2. Then the cells were shaken with 200 μL of DMSO for 10 min, and the absorbance was read on the microplate reader (SPECTROstar Omega, BMG LabTech GmbH, Ortenberg, Germany) at 570 nm. The viability rates were calculated by the equation: % = A/A0 × 100, wherein A was the average absorbance value of treatment group, and A0 was the average absorbance value of negative control group.

in vitro = conditions: human
Procedure: (§1) Caco-2 cells (4.0 × 10^5 per mL) at the logarithmic growth were seeded into the AP (apical) side of a 24-well Transwell™ plates (Corning Inc., Cambridge, MA, USA). DMEM solution was added into the apical (AP) side (0.5 mL) and basal (BL) side (1.0 mL) of the chamber, respectively. The cell culture was maintained at 37 °C under 90% humidity and 5% CO2. The medium was refreshed every two days in the first week, and then on every day the following week. […] The cell inserts were considered as qualified for trans-membrane transport evaluation only if the resistance reached above […].
(§2) On day 21, the culture medium was removed from the AP and BL sides of the trans-well filters. The Caco-2 monolayers were rinsed twice with pre-warmed HBSS (37 °C) and incubated for 20 min. Then HBSS was removed completely. The test solution of BFL or BPDI (was added to AP (0.4 mL) or BL side (3.2 mL), and then same volume of HBSS was added to the corresponding sides (BL or AP sides). Incubation continued at 37 °C for 180 min. To evaluate the permeability of test compounds across the cell monolayer, solutions from BL (0.4 mL) or AP (3.2 mL) side were collected at different time intervals (60, 120, and 180 min), and replaced with the same volume of HBSS. The collected solutions were lyophilized and stored under −80 °C before HPLC analysis. Experiments for each time point were repeated three times and were performed on the independent chamber.
(§3) Chromatographic analysis was performed using a Alltima TM C18 column (4.6× 250 mm, 5 μm) on an Agilent 1200 liquid chromatography system, equipped with a quaternary solvent delivery system, an auto-sampler and a DAD detector. The isocratic eluting solution consists of A: 0.2% phosphoric acid and B: acetonitrile (54:46, v/v); the detection wavelength and flow rate were set at 226 nm and 1.0 mL/min, respectively. The HPLC analysis will be run for 25 min.
(§4) Apparent permeability values (Papp) for the test compound was calculated according to the equation [22] Papp = (dQ/dt)/(AC0) where Papp is the apparent permeability (cm/s), dQ/dt is the appearance rate of the test compound on the receiver side (μg/s), A represents the surface area of carbon ester membrane (cm^2), and C0 is the initial concentration of compounds on the given sides (μg/L).

Caco-2 cell monolayer = assay: in vitro
Procedure: as §1, §2, §3, §4

Structure (SMILES): C[C@]12CC[C@H](O)C[C@H]1CC[C@@H]1[C@@H]2CC[C@]2(C)[C@@H](c3ccc(=O)oc3)CC[C@]12O [BFL, Bufalin]
- viability at 180 min, 50 μM ([1]; Caco-2 cells, 50 μM (BPDI: containing BFL 50 μM), MTT): 102 ± 7.2%
- viability at 180 min, 75 μM ([1]; Caco-2 cells, 75 μM (BPDI: containing BFL 75 μM), MTT): 100 ± 8.6%
- viability at 180 min, 100 μM ([1]; Caco-2 cells, 100 μM (BPDI: containing BFL 100 μM), MTT): 99.1 ± 8.5%
- viability at 180 min, 125 μM ([1]; Caco-2 cells, 125 μM (BPDI: containing BFL 125 μM), MTT): 98.9 ± 6.4%
- viability at 180 min ([1]; Caco-2 cells, 50, 75, 100 and 125 μM, read-out: viabilities after treatment): > 95%
- Papp A→B at 120 min, 50 μM (in vitro; Caco-2, Papp AP→BL, 50 μM, 120 min, concentration series (Table 2), n = 3): 1.58 ± 0.32 ×10⁻⁶ cm/s
- Papp A→B at 60 min, 75 μM (in vitro; Caco-2, Papp AP→BL, 75 μM, 60 min, time course (Table 3), n = 3): 1.52 ± 0.22 ×10⁻⁶ cm/s
- Papp A→B at 120 min, 75 μM (in vitro; Caco-2, Papp AP→BL, 75 μM, 120 min, concentration series (Table 2), n = 3): 1.47 ± 0.08 ×10⁻⁶ cm/s
- Papp A→B at 120 min, 75 μM (in vitro; Caco-2, Papp AP→BL, 75 μM, 120 min, time course (Table 3), n = 3): 1.36 ± 0.08 ×10⁻⁶ cm/s
- Papp A→B at 180 min, 75 μM (in vitro; Caco-2, Papp AP→BL, 75 μM, 180 min, time course (Table 3), n = 3): 1.28 ± 0.02 ×10⁻⁶ cm/s
- Papp A→B at 120 min, 100 μM (in vitro; Caco-2, Papp AP→BL, 100 μM, 120 min, concentration series (Table 2), n = 3): 1.46 ± 0.02 ×10⁻⁶ cm/s
- Papp A→B at 120 min, 125 μM (in vitro; Caco-2, Papp AP→BL, 125 μM, 120 min, concentration series (Table 2), n = 3): 1.64 ± 0.12 ×10⁻⁶ cm/s
- Papp B→A at 120 min, 50 μM (in vitro; Caco-2, Papp BL→AP, 50 μM, 120 min, concentration series (Table 2), n = 3): 1.37 ± 0.18 ×10⁻⁶ cm/s
- Papp B→A at 60 min, 75 μM (in vitro; Caco-2, Papp BL→AP, 75 μM, 60 min, time course (Table 3), n = 3): 1.14 ± 0.28 ×10⁻⁶ cm/s
- Papp B→A at 120 min, 75 μM (in vitro; Caco-2, Papp BL→AP, 75 μM, 120 min, concentration series (Table 2), n = 3): 1.32 ± 0.14 ×10⁻⁶ cm/s
- Papp B→A at 120 min, 75 μM (in vitro; Caco-2, Papp BL→AP, 75 μM, 120 min, time course (Table 3), n = 3): 1.08 ± 0.17 ×10⁻⁶ cm/s
- Papp B→A at 180 min, 75 μM (in vitro; Caco-2, Papp BL→AP, 75 μM, 180 min, time course (Table 3), n = 3): 0.99 ± 0.12 ×10⁻⁶ cm/s
- Papp B→A at 120 min, 100 μM (in vitro; Caco-2, Papp BL→AP, 100 μM, 120 min, concentration series (Table 2), n = 3): 1.29 ± 0.1 ×10⁻⁶ cm/s
- Papp B→A at 120 min, 125 μM (in vitro; Caco-2, Papp BL→AP, 125 μM, 120 min, concentration series (Table 2), n = 3): 1.35 ± 0.45 ×10⁻⁶ cm/s
- Papp (in vitro; Caco-2, Papp value (range over concentrations/times, text), summary of Table 2 and Table 3): 1.46 to 1.62 ×10⁻⁶ cm/s
- Papp (in vitro; Caco-2, apparent permeability coefficient (Papp) values (abstract), BFL in free or BPDI form): > 1 ×10⁻⁶ cm/s
- main transport mechanism (Caco-2 cell monolayer; Caco-2 monolayer): passive diffusion
- transport classification (Caco-2 cell monolayer; due to a Papp value of 1–10 × 10^−6 cm/s): moderate transport

Structure (SMILES): CC(=O)O[C@H]1C(=O)[C@@]2(C)[C@H]([C@H](OC(=O)c3ccccc3)[C@]3(O)C[C@H](OC(=O)[C@H](O)[C@@H](NC(=O)c4ccccc4)c4ccccc4)C(C)=C1C3(C)C)[C@]1(OC(C)=O)CO[C@@H]1C[C@@H]2O [Paclitaxel, paclitaxel]
- viability at 25 µM ([1]; Caco-2 cells, 25 μM, 180 min, MTT): 65.3 ± 7.2%
- viability ([1]; Caco-2 cells, 50 μM (BPDI: containing BFL 50 μM), 180 min, MTT): 43.5 ± 5.4%
- viability ([1]; Caco-2 cells, 75 μM (BPDI: containing BFL 75 μM), 180 min, MTT): 34.8 ± 3.2%
- viability ([1]; Caco-2 cells, 100 μM (BPDI: containing BFL 100 μM), 180 min, MTT): 30.5 ± 2.6%
